Measurements published in patent US20240238218A1, “[…] A […] ACTIVE COMPOUND AND METHOD OF PREPARATION THEREOF” (GW Research Limited, priority 2021, published 2024).

Key:
[1] = system: mouse model of generalised seizure (tonic hind limb extensor convulsions); assay: Maximal electroshock seizure threshold (MEST) test in the mouse
Experimental: The efficacy of the novel resorcinol according to the compound of Formula I was tested in a mouse model of generalised seizure, the maximal electroshock seizure threshold (MEST) test.
(§1) In the MEST test the ability of a drug to alter the seizure threshold current required to induce hind limb tonic extensor convulsions is measured according to an “up and down” method of shock titration (Kimball et al., 1957). An increase in seizure threshold is indicative of anti-convulsant effect.
(§2) The ability of a test compound to alter the stimulus intensity, expressed as current (mA), required to induce the presence of tonic hind limb extensor convulsions, is assessed in the MEST.
(§3) All animals were weighed at the beginning of the study and randomly assigned to treatment groups based on a mean distribution of body weight across groups.
The first animal within a treatment group was given a shock at the expected or estimated CC50 current. For subsequent animals, the current was lowered or raised depending on the convulsions outcome from the preceding animal, in intervals of 5 mA.
(§4) Data generated from each treatment group were used to calculate the CC50±SEM values for the treatment group.
Vehicle: (5% ethanol, 5% Kolliphor® EL, 90% Saline) was prepared as follows: 2 mL of ethanol, 2 mL of Kolliphor® EL were warmed to 60° C., in 36 mL of saline (1:1:18).
The test compound, described herein as Compound I, is as shown as Formula I. Test compound was administered at 1, 5, 20, 50, 100 and 200 mg/kg (i.p.) in a 1:2:17 ethanol:solutol:0.9% saline formulation.
(§5) The data for each treatment group were recorded as the number of +'s and 0's at each current level employed and this information is then used to calculate the CC50 value (current required for 50% of the animals to show seizure behaviour)±standard error.
(§6) Test compound effects were also calculated as percentage change in CC50 from the vehicle control group.
(§7) Significant difference between drug-treated animals and controls were assessed according to Litchfield and Wilcoxon (1949).

[2] = system: mouse model of generalised seizure (tonic hind limb extensor convulsions); assay: mini-MEST (maximal electroshock seizure threshold, minimal sample sizes) test in the mouse; details: 50 mg/kg i.p., 30 min post dose
Experimental: The maximal electroshock seizure threshold (MEST) test is widely utilized preclinically to evaluate pro- or anti-convulsant properties of test compounds (Loscher et al., 1991).
as §1, §2, §3
The first animal within a treatment group was given a shock at the expected or estimated CC50 current. For subsequent animals, the current was lowered or raised depending on the convulsions outcome from the preceding animal in log scale intervals.
as §4
Vehicle: (5% ethanol, 10% solutol in 85% Saline) was prepared as follows: 1 mL of ethanol, 2 mL of solutol were warmed to 60° C., in 17 mL of saline (1:2:17).
The test compound, described herein as Compound I, is as shown as Formula I. Test compound was administered at 50 mg/kg (i.p.) in a 1:2:17 ethanol:solutol:0.9% saline formulation.
as §5, §6, §7

RjOrl: Swiss mice = assay: Mouse 6 Hz (44 mA) psychomotor seizure test; type: in vivo; details: for Forelimb clonus (mean ± s.e.m.): score 0-2
Description: The 6 Hz Psychomotor Test, which detects anticonvulsant activity, follows that described by Brown et al. (J. Pharmacol. Exp. Ther. 107, 273-283, 1953).
Male RjOrl: Swiss mice, 5 weeks old, weighing 28-38 g at the beginning of the experiment. Animals were acclimatized to the test facility for at least 5 days after delivery and randomly housed in groups of 3-4 in macrolon cages on wood litter with free access to food and water.
Before transcorneal stimulation, a drop of tetracaine solution (2%) was applied on each eye of the mouse for local anesthesia. Between 1-10 minutes later, at the pre-treatment time specified for the test compound, the mice were administered a rectangular current (44 mA, rectangular pulse: 0.2 ms pulse width, 3 s duration, 6 Hz) via corneal electrodes connected to a constant current shock generator.
The number of seizures as reflected by forelimb clonus were recorded immediately after current administration. Forelimb clonus was scored as absent (0=no forelimb clonus), mild (1=clonus with one forelimb) and strong (2=clonus with both forelimbs).
[…] The experimenters were blinded to the treatment. The cages were randomly assigned to a treatment code, each designating one treatment group.
Compound I was administered intraperitoneally at 20 and 50 mg/kg, 30 minutes before the test, and at 100 and 200 mg/kg, 60 minutes before the test and were compared with the vehicle control (5% ethanol, 10% […], 85% physiological saline).
Valproate (300 mg/kg i.p.), administered 30 minutes before the test, was used as reference substance and was compared with the vehicle control (5% ethanol, 10% Kolliphor HS15, 85% physiological saline).
Test compound: Compound I dissolved in 5% ethanol, 10% Kolliphor HS15, 85% physiological saline.
Vehicle control: 5% ethanol, 10% Kolliphor HS15, 85% physiological saline.
Reference: Valproate (300 mg/kg), dissolved in 5% ethanol, 10% Kolliphor HS15, 85% physiological saline.
Data were assumed to be non-normally distributed based on validation data, therefore non-parametric tests were utilized. Quantitative data (scores) with the test substance were analyzed by comparing treated groups with the corresponding vehicle control using Kruskal-Wallis test with Dunn's multiple comparisons test when the Kruskal-Wallis Test was significant. Quantitative data with the reference substance was analysed using Mann-Whitney U test.

[3] = 20 mg/kg i.p., 30 min post dose
[4] = 50 mg/kg i.p., 30 min post dose
[5] = 100 mg/kg i.p., 60 min post dose
[6] = 200 mg/kg i.p., 60 min post dose
[7] = 20 mg/kg i.p., 30 minutes before the test
[8] = 50 mg/kg i.p., 30 minutes before the test
[9] = 100 mg/kg i.p., 60 minutes before the test
[10] = 200 mg/kg i.p., 60 minutes before the test

## C=C(C)[C@@H]1CC(O)C(C)=C[C@H]1c1c(O)cc(Br)cc1O (single isomer, unassigned) [Compound I]
[1]; 1 mg/kg i.p., 15 min post dose
  % change from vehicle (CC50): 32%
  CC50 +/− SEM: 31.3 ± 1.5 mA
[1]; 5 mg/kg i.p., 15 min post dose
  % change from vehicle (CC50): 45%
  CC50 +/− SEM: 34.2 ± 1.5 mA
[1]; [3]
  % change from vehicle (CC50): 202%
  CC50 +/− SEM: 71.5 ± 1.0 mA
[1]; [4]
  % change from vehicle (CC50): 650%
  CC50 +/− SEM: 177.5 ± 0.7 mA
[1]; [5]
  % change from vehicle (CC50): 1157%
  CC50 +/− SEM: 297.5 ± 0.7 mA
[1]; [6]
  % change from vehicle (CC50): >1168%
  CC50 +/− SEM: >300.0 mA
[2]
  CC50 +/− SEM: >114 mA
[2]; 6 animals
  tonic hindlimb convulsions in treatment group: did not have any convulsions
RjOrl: Swiss mice; [7]
  Forelimb clonus, Compared with Vehicle B (i.p.) %: 0%
  Forelimb clonus (mean ± s.e.m.): 0.8 ± 0.1
RjOrl: Swiss mice; [8]
  Forelimb clonus, Compared with Vehicle B (i.p.) %: −38%
  Forelimb clonus (mean ± s.e.m.): 0.5 ± 0.1
RjOrl: Swiss mice; 100 mg/kg i.p.
  Slight sedation (mice affected): Two mice out of the 13
RjOrl: Swiss mice; [9]
  Forelimb clonus, Compared with Vehicle B (i.p.) %: −88%
  Forelimb clonus (mean ± s.e.m.): 0.1 ± 0.1
RjOrl: Swiss mice; 200 mg/kg i.p.
  Tremor (mice affected): Two mice out of the 14
RjOrl: Swiss mice; 200 mg/kg i.p., 14 mice
  Sedation (mice affected): all mice showed slight (12 mice) to moderate (2 mice) sedation
RjOrl: Swiss mice; [10]
  Forelimb clonus, Compared with Vehicle B (i.p.) %: −63%
  Forelimb clonus (mean ± s.e.m.): 0.3 ± 0.1
